Results from US4442108A, “Hydrogenated isoquinolines and peripheral vascular disease treating compositions thereof” (Laboratoires Sobio S.A. of Immeuble Perisud, priority 1981, dated 1984).
Counter-ions that a name gives are not always drawn. Like-named read-outs stand apart in the source and are kept apart here.

Key:
[1] = tested on: isolated ileum of the guinea pig; experiment: Spasmolytic activity in vitro, barium chloride contraction of isolated ileum; format: cell-based; details: Cavia porcellus, Tyrode liquid, 37° C., barium chloride as contracting agent, product added 30 seconds before, read-out: EC50 (concentration required to cause inhibition of contraction in 50% of the population)
Experimental: The tests are carried out on isolated ileum of the guinea pig surviving in Tyrode liquid, aerated and maintained at 37° C. The products are added 30 seconds before affusion of barium chloride used as contracting agent. The concentrations required to cause inhibition of contraction in 50% of the population (EC50) was given in table II compared with papaverine.

[2] = Acute toxicity, LD50 in mice (method of Litchfield and Wilcoxon), intravenous route; details: in vivo
Experimental: LD50 values in mice for several compounds of the invention were obtained by the method of Litchfield and Wilcoxon (J. Pharmacol. (1949), 96.99) after the administration of the test compound by intravenous route (i.v.) in the mouse (CD, males 18-24 g) in a volume of 0.40 ml/20 g of body weight. The mortality is noted 7 days after administration.

[3] = tested on: dogs anaesthetized with chloralose; experiment: Cardiovascular activity in anaesthetized dogs; format: in vivo, dog; details: i.v., 1/15 to 1/30 of the mouse i.v. LD50
Experimental: The following parameters were recorded in dogs anaesthetized with chloralose, and under artificial respiration:
left ventricular contractile force.
The compounds tested were injected intravenously in a dose of from (1/15) to (1/30) of the LD50 (i.v.) previoulsy determined in mice.

[4] = mouse CD males, i.v., 0.40 ml/20 g, mortality noted 7 days after administration, limits p = 0.05 in brackets
[5] = mouse, read-out: LD50 and limits (p = 0.05)

Row | SMILES | EC50 [1] | LD50 at 168 h [2, 4] | effect on blood pressure (mean aortic pressure) [3] | effect on left ventricular contractile force [3] | LD50 at 168 h [2, 5] | effect on cardiac frequency [3]
1 | CCOc1cc2c(cc1OCC)C(Cc1ccc(OC(C)C)c(OC(C)C)c1)NCC2 (centres unmarked) [Example 11, 6,7-Diethoxy-1-(3',4'-diisopropoxybenzyl)-1,2,3,4-tetrahydroisoquinoline hydrochloride] | 60 µM | 22 mg/kg | – | – | – | –
2 | CCCOc1ccc(CC2=NCCc3cc(OCC)c(OCC)cc32)cc1OCCC.Cl [Example 3, 6,7-Diethoxy-1-(3',4'-di-n-propoxybenzyl)-3,4-dihydroisoquinoline hydrochloride] | 3.2 µM | 17.5 mg/kg | transient hypotension | reduction in the amplitude of ventricular contraction | – | –
3 | COc1ccc(Cc2nccc3cc(OC)c(OC)cc23)cc1OC [Papauerine HCl, reference compound] | 980 µM | – | – | – | – | –
4 | CCOc1cc2c(cc1OCC)C(Cc1ccc(OC(C)C)c(OC(C)C)c1)=NCC2 [Example 1, 6,7-Diethoxy-1-(3'4'-diisopropoxybenzyl-3,4-dihydroisoquinoline hydrochloride] | 11 µM | – | transient hypotension | reduction in the amplitude of ventricular contraction | 19 mg/kg | –
5 | CCCOc1cc2c(cc1OCCC)C(Cc1ccc(OCC)c(OCC)c1)=NCC2.Cl [Example 4, 1-(3',4'-Diethoxybenzyl)-6,7-di-n-propoxy-3,4-dihydroisoquinoline hydrochloride] | 3.7 µM | 13.5 mg/kg | transient hypotension | reduction in the amplitude of ventricular contraction | – | –
6 | CCOc1ccc(CC2=NCCc3cc(OC(C)C)c(OC(C)C)cc32)cc1OCC [Example 2, 1-(3'4'-Diethoxybenzyl)-6,7-diisopropoxy-3,4-dihydroisoquinoline hydrochloride] | 4.2 µM | – | transient hypotension | reduction in the amplitude of ventricular contraction | 8.2 mg/kg | –
7 | CCOc1ccc(CC2NCCc3cc(OC(C)C)c(OC(C)C)cc32)cc1OCC.Cl (centres unmarked) [Example 10, 1-(3',4'-Diethoxybenzyl)-6,7-diisopropoxy-1,2,3,4-tetrahydroisoquinoline hydrochloride] | 10 µM | 19 mg/kg | transient hypotension | reduction in the amplitude of ventricular contraction | – | –
8 | COc1ccc(Cc2nccc3cc(OC)c(OC)cc23)cc1OC [papaverine, 1-(3',4'-dimethoxybenzyl)-6,7-dimethoxy isoquinoline, reference compound] | – | – | transient hypotension | increase of the ventricular contractile force | – | tachycardia
